From patent publication US20070297980A1, “Geldanamycin and Derivatives Inhibit Cancer Invasion and Identify Novel Targets” (priority 2004, published 2007)
“Also recorded” adds a separate entry of the source.

Columns and labels:
[1] = system: HGF/SF-induced uPA-plasmin activity in MDCK cells; assay: HGF/SF-Met-uPA-plasmin cell-based assay, MDCK cells; set-up: species or system canine; conditions: for concentration level at which HGF/SF-induced uPA activity is inhibited: words
Protocol: Cells were seeded in 96-well plates at 1500 cells/well (with the exception of SK-LMS-1 cells, which were seeded at 5000 cells/well) in order to detect color intensity, either with MTS (Promega) for cell growth determination or via Chromozyme PL (Boehringer Mannheim) for uPA-plasmin activity measurement. Cells were grown overnight in DMEM/10% FBS as described previously. Drugs were dissolved in DMSO and serially diluted from stock concentrations into DMEM/10% FBS medium and added to the appropriate wells. Immediately after drug or reagent addition, HGF/SF (60 ng/ml) was added to all wells (with the exception of wells used as controls to calculate basal growth and uPA-plasmin activity levels). Twenty-four hours after drug and HGF/SF addition, plates were processed for the determination of uPA-plasmin activity as follows: Wells were washed twice with DMEM (without phenol red; Life Technologies, Inc.), and 200 μl of reaction buffer [50% (v/v) 0.05 units/ml plasminogen in DMEM (without phenol red), 40% (v/v) 50 mM Tris buffer (pH 8.2), and 10% (v/v) 3 mM Chromozyme PL (Boehringer Mannheim) in 100 mM glycine solution] were added to each well.

[2] = system: uPA activity in SK-LMS-1 cells; assay: HGF/SF induction of uPA activity, SK-LMS-1 cells; format: cell-based, human; conditions: peak uPA induction after HGF/SF to basal
Protocol: (§4) Cells were seeded in 96-well plates at 1500 cells/well (with the exception of SK-LMS-1 cells, which were seeded at 5000 cells/well) in order to detect color intensity, either with MTS (Promega) for cell growth determination or via Chromozyme PL (Boehringer Mannheim) for uPA-plasmin activity measurement. Cells were grown overnight in DMEM/10% FBS as described previously. Drugs were dissolved in DMSO and serially diluted from stock concentrations into DMEM/10% FBS medium and added to the appropriate wells. Immediately after drug or reagent addition, HGF/SF (60 ng/ml) was added to all wells (with the exception of wells used as controls to calculate basal growth and uPA-plasmin activity levels). Twenty-four hours after drug and HGF/SF addition, plates were processed for the determination of uPA-plasmin activity as follows: Wells were washed twice with DMEM (without phenol red; Life Technologies, Inc.), and 200 μl of reaction buffer [50% (v/v) 0.05 units/ml plasminogen in DMEM (without phenol red), 40% (v/v) 50 mM Tris buffer (pH 8.2), and 10% (v/v) 3 mM Chromozyme PL (Boehringer Mannheim) in 100 mM glycine solution] were added to each well. […]

[3] = system: uPA activity in U87 cells; assay: HGF/SF induction of uPA activity, U87 cells; format: cell-based, human; conditions: peak uPA induction after HGF/SF to basal
Protocol: as §4

[4] = system: uPA activity in DBTRG cells; assay: HGF/SF induction of uPA activity, DBTRG cells; format: cell-based, human; conditions: peak uPA induction after HGF/SF to basal
Protocol: (§5) HGF/SF-Met-uPA-Plasmin Cell-Based Assay (Webb et al., supra). Cells were seeded in 96-well plates at 1500 cells/well (with the exception of SK-LMS-1 cells, which were seeded at 5000 cells/well) in order to detect color intensity, either with MTS (Promega) for cell growth determination or via Chromozyme PL (Boehringer Mannheim) for uPA-plasmin activity measurement. Cells were grown overnight in DMEM/10% FBS as described previously. Drugs were dissolved in DMSO and serially diluted from stock concentrations into DMEM/10% FBS medium and added to the appropriate wells. Immediately after drug or reagent addition, HGF/SF (60 ng/ml) was added to all wells (with the exception of wells used as controls to calculate basal growth and uPA-plasmin activity levels). Twenty-four hours after drug and HGF/SF addition, plates were processed for the determination of uPA-plasmin activity as follows: Wells were washed twice with DMEM (without phenol red; Life Technologies, Inc.), and 200 μl of reaction buffer [50% (v/v) 0.05 units/ml plasminogen in DMEM (without phenol red), 40% (v/v) 50 mM Tris buffer (pH 8.2), and 10% (v/v) 3 mM Chromozyme PL (Boehringer Mannheim) in 100 mM glycine solution] were added to each well. […]

[5] = system: uPA activity in PC-3 cells; assay: HGF/SF induction of uPA activity, PC-3 cells; format: cell-based, human; conditions: peak uPA induction after HGF/SF to basal
Protocol: as §5

[6] = system: HGF/SF-induced uPA activity in U373 cells; assay: HGF/SF-Met-uPA-plasmin cell-based assay, U373 cells; set-up: species or system human
Protocol: as §5

[7] = system: uPA activity in DU145 cells; assay: HGF/SF induction of uPA activity, DU145 cells; format: cell-based, human; conditions: peak uPA induction after HGF/SF to basal
Protocol: as §4

[8] = system: uPA activity in SW1874 cells; assay: HGF/SF induction of uPA activity, SW1874 cells; format: cell-based, human; conditions: peak uPA induction after HGF/SF to basal
Protocol: as §4

[9] = system: uPA activity in U118 cells; assay: HGF/SF induction of uPA activity, U118 cells; format: cell-based, human; conditions: peak uPA induction after HGF/SF to basal
Protocol: as §5

[10] = system: uPA activity in SNB19 cells; assay: HGF/SF induction of uPA activity, SNB19 cells; format: cell-based, human; conditions: peak uPA induction after HGF/SF to basal
Protocol: as §5

[11] = system: HGF/SF-induced Matrigel invasion by DBTRG cells; assay: In vitro Matrigel invasion assay, DBTRG; format: cell-based, human; conditions: even at pM-fM concentrations
Protocol: (§1) In Vitro Cell Invasion Assay. The in vitro invasion assay was performed as previously described by Jeffers et al., 1996, using a 24-well invasion chamber coated with GFR-Matrigel® (Becton Dickinson). Cells were suspended in DMEM/0.1% BSA and were plated in the invasion (upper) chamber (5−25×10^3 cells/well) (DBTRG 5,000, SNB19 and U373 25,000 cells/well). The lower chamber was filled with DMEM/0.1% BSA with or without the addition of HGF/SF (100 ng/ml). To evaluate GA inhibition, GA was serially diluted into both the upper and lower chambers at final concentrations 1 μM, to 1 fM as indicated and immediately after HGF/SF addition. After 24 h, cells remaining in the upper chamber were removed by scraping. The cells that invaded through the Matrigel® and attached to the lower surface of the insert were stained using Diff-Quik (Dade Behring Inc.) and counted under a light microscope.

[12] = system: HGF/SF-induced Matrigel invasion by SNB19 cells; assay: In vitro Matrigel invasion assay, SNB19; format: cell-based, human; conditions: even at pM-fM concentrations
Protocol: as §1

[13] = system: HGF/SF-induced cell scattering in MDCKG3 cells; assay: Scatter assay, MDCKG3 cells (maintained in MA); format: cell-based, canine; conditions: MDCKG3 cells maintained in 3×10^−6 M MA; GA tested 10^−7 to 10^−15 M
Protocol: (§2) Scatter Assay. In parallel with assessing uPA activity, 96-well plates of MDCK cells were used to detect cell scattering. Cell preparation was same as above (plasmin assay) described above. At the same time as uPA activity was measured, the cells being assayed for scatter were fixed, stained (Diff-Quik Set, Dade Behring AG) and photographed.

[14] = system: HGF/SF-induced Matrigel invasion by U373 cells; assay: In vitro Matrigel invasion assay, U373; format: cell-based, human; conditions: even at pM-fM concentrations
Protocol: as §1

Met expression = assay: Western blot, Met expression; format: cell-based; set-up: effect on Met expression: dose or concentration left out as unconfirmed; conditions: for Met abundance upon acute challenge: 24 hrs, MDCKG1-G3 cells chronically exposed to MA; for effect on Met expression: MDCK and DBTRG cells
Protocol: (§3) Western Blot and Expression of Met and other Proteins. Cells were seeded in 60×15 mm dishes at 10^5 cells per dish. HGF/SF (100 ng/ml) was added to each dish 24 hr later. Immediately thereafter, serially diluted GA or MA was added to the relevant dishes at the concentrations indicated, and incubated for the indicated length of time before lysis. For Met and MAPK phosphorylation detection, 10^5 cells were seeded in 60×15 mm dishes and serum-starved for 24 hrs. After HGF/SF (100 ng/ml) stimulation, cells were lysed at 10 and 30 min. Control cells were not given HGF/SF. After cell lysis, protein concentration was determined by DC protein assay (Bio-Rad), and equal quantities of protein were loaded and separated by SDS-PAGE and transferred in a Western blot to PVDF membranes (Invitrogen). After blocking with 5% dry milk, membranes were blotted with specific antibodies.
After cells grew to 80% confluence, GA or MA, at various concentrations was added to the dishes. After 24 hours, cells were washed twice with PBS and lysed in TNESV buffer supplemented with Complete™ proteinase inhibitors (Roche Molecular Biochemicals). Protein concentration was determined by DC protein assay. Equal quantities of protein were used for Western blotting for Met and HSP90α. For pull-down assays, 20 μl of control or GA beads adjusted for equal concentrations were added to […] of extract and rotated at 4° C. overnight. Beads were recovered by low speed centrifugation and washed 3× with TNESV. Sixty μl 2× sample buffer was added to beads and boiled for 10 min. The samples were subjected to SDS-PAGE followed by Western blot analysis.

[15] = Egorin M J et al., 2002; cited from earlier work
[16] = preliminary reports; Neckers et al; Sausville et al; cited from earlier work
[17] = system: HGF/SF-induced MDCK cell scattering; assay: Scatter assay, MDCK cells; format: cell-based, canine
Protocol: as §2

[18] = system: cell proliferation (DBTRG, U373, SNB19 cells); assay: Proliferation assay (MTS); format: cell-based, human; conditions: cell line not stated
Protocol: Proliferation Assay. In parallel with uPA-plasmin detection assay, cell proliferation in 96-well plates was detected with MTS. […] The plates were then incubated at 37° C., in a 5% CO2 atmosphere for 4 h. The absorbance was read on an automated spectrophotometric plate reader at 490 nm.

HSP90α expression = assay: Western blot, HSP90α expression; format: cell-based; conditions: MDCK and DBTRG cells
Protocol: as §3
After cells grew to 80% confluence, GA or MA, at various concentrations was added to the dishes. After 24 hours, cells were washed twice with PBS and lysed in TNESV buffer supplemented with Complete™ proteinase inhibitors (Roche Molecular Biochemicals). Protein concentration was determined by DC protein assay. Equal quantities of protein were used for Western blotting for Met and HSP90α. […]

MDCK cells = assay: Long-term culture of MDCK cells in macbecin II; format: cell-based, canine
Protocol: All compounds were first diluted in DMSO at 0.01M, separated into small stock aliquots (5 μl) and kept at −80° C. until use. When used, stocks were thawed and serially diluted with DMEM/10% FBS. For long term culture with MA, conditioned medium with the compound at 1, 2, or 3×10^−6 M was changed at least twice a week.

HSP90α = assay: GA-affinity bead pull-down (solid-phase binding assay); conditions: MDCK and DBTRG lysates

CO[C@H]1/C=C\C=C(/C)C(=O)NC2=CC(=O)C(N3CCC3)=C(C[C@@H](C)C[C@H](OC)[C@H](O)[C@@H](C)/C=C(\C)[C@@H]1OC(N)=O)C2=O [Compound 14, 17-(1-Azetidinyl)-17-demethoxygeldanamycin]
activity in HGF/SF-induced uPA-plasmin cell-based assays (words) ([1]; MDCK cells): active

C[C@@H]1C[C@H]2O[C@@H]2/C=C\C=C\C(=O)Cc2c(Cl)c(O)cc(O)c2C(=O)O1 [Compound 3, Radicicol, reference compound]
activity in HGF/SF-induced uPA-plasmin cell-based assays (words) ([1]; MDCK cells): poor activity; also recorded: inactive
concentration level at which HGF/SF-induced uPA activity is inhibited [1]: only at nanomolar levels
concentration level at which HGF/SF-induced uPA activity is inhibited ([1]; listed as RA): only at nM or higher concentrations

HGF/SF: hepatocyte growth factor/scatter factor, ligand of the Met receptor tyrosine kinase
uPA activity induction (fold) ([1]; MDCK, peak uPA induction after HGF/SF (0-60 ng/ml, 24 h) to basal): 4.27 fold
uPA activity induction (fold) [2]: 2.01 fold
uPA activity induction (fold) [3]: 1.04 fold
uPA activity induction (fold) [4]: 2.28 fold
uPA activity induction (fold) [5]: 1.00 fold
uPA activity induction (fold) ([6]; U373, peak uPA induction after HGF/SF to basal): 1.56 fold
uPA activity induction (fold) [7]: 1.06 fold
uPA activity induction (fold) [8]: 0.97 fold
uPA activity induction (fold) [9]: 1.12 fold
uPA activity induction (fold) [10]: 1.95 fold

COc1c(O)cc2c(O)c1C[C@@H](C)C[C@H](OC)[C@H](O)[C@@H](C)/C=C(\C)[C@H](OC(N)=O)[C@@H](OC)/C=C\C=C(/C)C(=O)N2 [Compound 20, 17,21-Dihydrogeldanamycin]
activity in HGF/SF-induced uPA-plasmin cell-based assays (words) ([1]; MDCK cells): active

COC1=C2C[C@@H](C)C[C@H](OC)[C@H](O)[C@@H](C)/C=C(\C)[C@H](OC(N)=O)[C@@H](OC)/C=C\C=C(/C)C(=O)NC(=CC1=O)C2=O [Compound 1, (+)-Geldanamycin]
effect on HGF/SF-induced Matrigel invasion [11]: abolished
activity in HGF/SF-induced uPA-plasmin cell-based assays (words) ([1]; MDCK cells): active
effect on HGF/SF-induced Matrigel invasion [12]: abolished
GA concentration at which scattering was again fully observed [13]: 10^−15 M
effect on HGF/SF-induced Matrigel invasion [14]: abolished
Met abundance upon acute challenge (Met expression; 10^−6 M GA): dramatic decreases
effect on Met expression (Met expression; GA at nM levels): downregulates

CO[C@H]1/C=C\C=C(/C)C(=O)NC2=CC(=O)C(N3CCC3)=C(C[C@@H](C)C[C@H](OC)[C@H](OC(C)=O)[C@@H](C)/C=C(\C)[C@@H]1OC(N)=O)C2=O [Compound 18, 11-O-Acetyl-17-(1-azetidinyl)-17-demethoxygeldanamycin]
activity in HGF/SF-induced uPA-plasmin cell-based assays (words) ([1]; MDCK cells): inactive

COC1/C=C\C=C(/C)C(=O)NC2=CC(=O)C(NCCN(C)C)=C(C[C@@H](C)C[C@H](OC)[C@H](O)[C@@H](C)/C=C(\C)[C@@H]1OC(N)=O)C2=O (some centres unmarked) [Compound 5, 17-(2-Dimethylaminoethyl)amino-17-demethoxygeldanamycin]
quantity not named in the sentence ("was essentially 100% when given i.p.") [15]: ~100%

CO[C@H]1/C=C\C=C(/C)C(=O)NC2=CC(=O)C(N3CCC3)=C(C[C@@H](C)C[C@H](OC)[C@H](O)[C@@H](C)/C=C(\C)[C@@H]1O)C2=O [Compound 19, 17-(1-Azetidinyl)-7-decarbamyl-17-demethoxygeldanamycin]
activity in HGF/SF-induced uPA-plasmin cell-based assays (words) ([1]; MDCK cells): completely inactive

C=CCNC1=C2C[C@@H](C)C[C@H](OC)[C@H](O)[C@@H](C)/C=C(\C)[C@H](OC(N)=O)[C@@H](OC)/C=C\C=C(/C)C(=O)NC(=CC1=O)C2=O [Compound 4, 17-Allylamino-17-demethoxygeldanamycin]
lowest concentration at which inhibitory effects on uPA activity observed ([1]; MDCK cells): 10^−17 M
activity in HGF/SF-induced uPA-plasmin cell-based assays (words) ([1]; MDCK cells): active
hepatic toxicity in clinical investigations [16]: dose-limiting
lowest concentration at which inhibitory effects on uPA activity observed ([6]; U373 cells): 10^−17 M
concentration range inhibiting HGF/SF-induced MDCK cell scattering ([17]; FIG. 10): pM to fM range

COC1CC(C)C(OC)c2cc(O)cc(c2O)NC(=O)/C(C)=C\C=C/C(C)C(OC(N)=O)/C(C)=C\C(C)C1OC (centres unmarked) [Compound 21, Macbecin II, reference compound]
concentration level at which proliferation is inhibited [18]: nM levels
activity in HGF/SF-induced uPA-plasmin cell-based assays (words) ([1]; MDCK cells): inactive
activity in HGF/SF-induced uPA-plasmin cell-based assays (words) ([1]; MDCK cells, listed as macbecin II): poor activity
concentration level at which HGF/SF-induced uPA activity is inhibited [1]: only at nM or higher concentrations
effect on HSP90α expression (HSP90α expression): up-regulation
highest non-toxic concentration (MDCK cells; MDCK cells maintained for several months): 3 µM
MA concentration up to which MDCK cells continued to proliferate (MDCK cells; long-term culture): ≤ 3 µM
Met abundance upon acute challenge (Met expression; 10^−5 M MA): less of a decrease
effect on Met expression (Met expression; at MA): downregulation
total HSP90α recovered with GA-affinity beads (HSP90α; cells treated with 10^−5 M MA): negligible levels
HSP90α available to the GA affinity beads (HSP90α; cells treated with 10^−6 M MA): reduced
effect on HGF/SF-induced scattering of MDCK cells ([17]; 3×10^−6 M MA): effectively blocked

CO[C@H]1[C@@H](OC)C[C@H](C)[C@@H](OC)C2=CC(=O)C=C(NC(=O)/C(C)=C/C=C\[C@H](C)[C@@H](OC(N)=O)/C(C)=C/[C@@H]1C)C2=O [Compound 2, Macbecin I, reference compound]
activity in HGF/SF-induced uPA-plasmin cell-based assays (words) ([1]; MDCK cells): inactive
activity in HGF/SF-induced uPA-plasmin cell-based assays (words) ([1]; MDCK cells, listed as macbecin I): poor activity
